Measured values taken from patent US10358449B2, “Xanthine derivative” (priority 2015, dated 2019).
Where two headings read alike, the source gives them in different places. Marks after values point to notes of the source that are not given here.

Key:
[1] = tested on: obese mice (B6.Cg-Lepob/JNju); test: Glucose tolerance test of obese mice; type: in vivo, mouse; design: AUC0-120 min: unit not given beside the values
Method: 2. Experimental method: normal mice, obese mice and diabetic mice were used for studying glucose tolerance tests Experimental process of OGTT (Oral Glucose Tolerance Test): fasting for 6 hours before the test begins, 60 min after drug administration, glucose was administrated by gavage (drug concentration 0.6 mg/ml, administration volume 5 ml/kg) (2 g/kg glucose was administrated to diabetic mice; 2 g/kg glucose was administrated to obese mice; and 5 g/kg glucose was administrated to normal mice), blood glucose values at 0 min, 15 min, 30 min, 45 min, 60 min and 120 min are respectively determined after glucose administration, […]

[2] = Pharmacokinetics experiments in CD-1 mice; type: in vivo, mouse; settings: for concentration at 0.5 h: 0.500 h; for MRT last: read-out: MRT0-last; for concentration at 0.25 h: 0.250 h; for Plasma drug concentration (ng/ml): LLOQ 3 ng/ml
Method: Six healthy CD-1 mice of 7-10 weeks old were randomly separated into two groups. 2 mg/kg and 5 mg/kg TSL-0319 were administrated respectively by intravenous injection and by gavage (2 mg/ml for intravenous injection, made into transparent solution with solution of DMSO/PEG400/H2O=20/60/20; 5 mg/ml for gavage; made into transparent solution with solution of PEG400 (Tween80/H2O=40/10/50); fasting for 12 hours but free drinking before administration; blood was taken from the great saphenous vein or submaxillary veins by time points (time points for taking blood of intravenous injection: 0 h, 0.0833 h, 0.250 h, 0.500 h, 1.00 h, 2.00 h, 4.00 h, 8.00 h, 12.00 h and 24.00 h; time points for taking blood of gavage: 0 h, 0.250 h, 0.50 h, 1.00 h, 2.00 h, 4.00 h, 8.00 h, 12.00 h and 24.0 h) before and after administration, lower limit of quantitation, LLOQ was set at 3 ng/ml.

[3] = biological target: humanized recombinant DPP9 (Homo sapiens (Human), UniProt Q86TI2); test: Drug selectivity experiment in vitro, DPP9; type: biochemical
[4] = CD-1, mouse, plasma, oral, gavage 5 mg/kg, read-out: Plasma drug concentration
[5] = CD-1, mouse, plasma, po, gavage 5 mg/kg
[6] = CD-1, mouse, plasma, intravenous injection 2 mg/kg
[7] = CD-1, mouse, plasma, intravenous injection 2 mg/kg, read-out: Plasma drug concentration

Sequence of humanized recombinant DPP9 (Q86TI2 whole entry): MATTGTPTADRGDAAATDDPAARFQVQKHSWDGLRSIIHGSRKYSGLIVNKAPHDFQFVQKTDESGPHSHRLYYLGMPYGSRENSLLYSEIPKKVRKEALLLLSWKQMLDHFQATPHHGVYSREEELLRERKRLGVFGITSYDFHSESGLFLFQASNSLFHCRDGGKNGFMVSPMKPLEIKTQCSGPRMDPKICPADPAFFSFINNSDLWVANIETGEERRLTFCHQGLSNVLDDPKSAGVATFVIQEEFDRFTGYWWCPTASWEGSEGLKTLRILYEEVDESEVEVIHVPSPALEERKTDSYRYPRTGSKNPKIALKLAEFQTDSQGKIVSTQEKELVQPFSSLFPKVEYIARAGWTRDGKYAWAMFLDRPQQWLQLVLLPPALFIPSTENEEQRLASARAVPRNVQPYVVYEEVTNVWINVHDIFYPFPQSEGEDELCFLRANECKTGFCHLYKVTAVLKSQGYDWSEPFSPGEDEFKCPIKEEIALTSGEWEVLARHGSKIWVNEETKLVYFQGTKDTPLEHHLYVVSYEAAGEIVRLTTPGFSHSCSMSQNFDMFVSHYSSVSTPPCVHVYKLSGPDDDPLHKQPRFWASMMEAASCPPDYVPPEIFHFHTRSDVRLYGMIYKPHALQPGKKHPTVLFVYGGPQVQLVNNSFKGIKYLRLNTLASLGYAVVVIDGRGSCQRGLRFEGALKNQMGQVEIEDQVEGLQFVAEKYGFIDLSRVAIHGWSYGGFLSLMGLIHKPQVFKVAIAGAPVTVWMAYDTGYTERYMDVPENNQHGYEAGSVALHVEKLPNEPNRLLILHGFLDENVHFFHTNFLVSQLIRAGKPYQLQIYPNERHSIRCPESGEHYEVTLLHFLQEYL

- Cmax ([2]; CD-1, mouse, blood, oral, dosage 5 mg/kg, read-out: Cmax in mice): 200 to 500 nM
- concentration at 0.5 h [2, 4]: 123 ± 30.2 ng/mL
- concentration at 1 h [2, 4]: 183 ± 19.1 ng/mL
- concentration at 2 h [2, 4]: 211 ± 83 ng/mL
- concentration at 4 h [2, 4]: 145 ± 40.9 ng/mL
- concentration at 8 h ([2]; CD-1, mouse, plasma, oral, gavage 5 mg/kg, 8.00 h, read-out: Plasma drug concentration): 8.03 ± 3.71 ng/mL
- AUC(0-inf) [2, 5]: 858 ± 185 ng·h/mL
- AUC(0-t) [2, 5]: 844 ± 181 ng·h/mL
- Tmax [2, 5]: 1.33 ± 0.577 h
- half-life [2, 5]: 1.37 ± 0.317 h
- MRT inf ([2]; CD-1, mouse, plasma, po, gavage 5 mg/kg, read-out: MRT0-inf): 3 ± 0.111 h
- MRT last [2, 5]: 2.87 ± 0.0589 h
- AUC(0-inf) [2, 6]: 567 ± 56.1 ng·h/mL
- AUC(0-t) [2, 6]: 555 ± 54.7 ng·h/mL
- clearance [2, 6]: 59.1 ± 5.63 mL/min/kg
- concentration at 0.25 h [2, 7]: 529 ± 93.4 ng/mL
- concentration at 0.5 h [2, 7]: 344 ± 32.7 ng/mL
- concentration at 1 h [2, 7]: 161 ± 21.2 ng/mL
- concentration at 2 h [2, 7]: 47.5 ± 13.6 ng/mL
- concentration at 4 h [2, 7]: 11.9 ± 2.24 ng/mL
- MRT ([2]; CD-1, mouse, plasma, intravenous injection 2 mg/kg, read-out: MRT0-int): 0.953 ± 0.123 h
- MRT last [2, 6]: 0.836 ± 0.0919 h
- Vd ([2]; CD-1, mouse, plasma, intravenous injection 2 mg/kg, read-out: Vdss): 3.41 ± 0.745 L/kg
- Plasma drug concentration (ng/ml) ([2]; gavage 5 mg/kg, 12.00 h): BQL
- Plasma drug concentration (ng/ml) ([2]; gavage 5 mg/kg, 24.00 h): BQL
- Plasma drug concentration (ng/ml) ([2]; intravenous injection 2 mg/kg, 8.00 h): BQL
- Plasma drug concentration (ng/ml) ([2]; intravenous injection 2 mg/kg, 12.00 h): BQL
- Plasma drug concentration (ng/ml) ([2]; intravenous injection 2 mg/kg, 24.00 h): BQL
- bioavailability ([2]; mouse, plasma, oral, gavage 5 mg/kg versus intravenous 2 mg/kg, CD-1 mice): 60.5%
- concentration at 0.25 h ([2]; mouse, plasma, oral, gavage 5 mg/kg, CD-1 mice, read-out: Plasma drug concentration): 48 ± 27.9 ng/mL
- Cmax ([2]; mouse, plasma, po, gavage 5 mg/kg, CD-1 mice, read-out: Cmax): 223 ± 68.1 ng/mL
- half-life ([2]; mouse, plasma, intravenous injection 2 mg/kg, CD-1 mice): 1.09 ± 0.623 h
- concentration at 0.5 min ([2]; mouse, plasma, intravenous injection 2 mg/kg, CD-1 mice, 0.5 min, read-out: Plasma drug concentration): 759 ± 133 ng/mL
- IC50 [3]: > 100 µM
- Selectivity (DPP9 column) ([3]; DPP9 versus DPP4): > 1250000
- inhibition effect to DPP9 ([3]; in words): no inhibition effect
SMILES: CC#CCn1c(N2CCC[C@@H](N)C2)nc2c1c(=O)n(Cc1nccnc1C#N)c(=O)n2C [Compound I-3, 1-[(3-cyano-pyrazine-2-yl)methyl]-3-methyl-7-(2-butyne-1-yl)-8-[(R)-3-amino-piperidine-1-yl]-xanthine]
- Blood glucose concentration 0 min ([1]; obese mice B6.Cg-Lepob/JNju, drug at -60 min (0.6 mg/ml, 5 ml/kg), 2 g/kg glucose at 0 min): 10.90 mmol/L
- hypoglycemic effect ([1]; obese mice, in words): good hypoglycemic effect
- Blood glucose concentration 15 min ([1]; obese mice, 15 min after glucose): 32.88 mmol/L
- Blood glucose concentration 30 min ([1]; obese mice, 30 min after glucose): 25.93 mmol/L
- Blood glucose concentration 45 min ([1]; obese mice, 45 min after glucose): 17.03** mmol/L
- Blood glucose concentration 60 min ([1]; obese mice, 60 min after glucose): 13.88** mmol/L
- Blood glucose concentration 120 min ([1]; obese mice, 120 min after glucose): 9.53* mmol/L
- AUC0-120 min ([1]; obese mice, blood glucose AUC): 2025*
